Results as given in ChEMBL document CHEMBL1201862, “PubChem BioAssay data set” (2004).
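Growth conditions: 96-well plates. Treatment: test compound, 48 hours, 5 concentrations. Analysis: linear interpolation between bracketing concentrations; unreached endpoints set to highest concentration. The concentration for 50% growth inhibition is given as GI50.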 Activity calls are given as the source filed them. No stated cut-off is given here; in the data, active = GI50 up to about 1.1 µM and inactive = higher.

What was measured:
Assay in all cases: NCI-60 cell line screen, 48 h
OVCAR-8 = test system: OVCAR-8
NCI-H460 = test system: NCI-H460
M14 = test system: M14
SF-539 = test system: SF-539
NCI-H226 = test system: NCI-H226
Malme-3M = test system: Malme-3M
UACC-257 = test system: UACC-257
HT-29 = test system: HT-29
A498 = test system: A498
786-0 = test system: 786-0
NCI-H23 = test system: NCI-H23
OVCAR-5 = test system: OVCAR-5
LOX IMVI = test system: LOX IMVI
HCT-116 = test system: HCT-116
HOP-92 = test system: HOP-92
UO-31 = test system: UO-31
SK-OV-3 = test system: SK-OV-3

| Structure (SMILES) | GI50 (OVCAR-8) | GI50 (NCI-H460) | GI50 (M14) | GI50 (SF-539) | GI50 (NCI-H226) | GI50 (Malme-3M) | GI50 (UACC-257) | GI50 (HT-29) | GI50 (A498) | GI50 (786-0) | GI50 (NCI-H23) | GI50 (OVCAR-5) | GI50 (LOX IMVI) | GI50 (HCT-116) | GI50 (HOP-92) | GI50 (UO-31) | GI50 (SK-OV-3) |
| --- | --- | --- | --- | --- | --- | --- | --- | --- | --- | --- | --- | --- | --- | --- | --- | --- | --- |
| CCOC(=O)Cc1csc(Nc2ccccc2[N+](=O)[O-])n1 | > 100 µM (inactive) | > 100 µM (inactive) | > 100 µM (inactive) | > 100 µM (inactive) | > 100 µM (inactive) | > 100 µM (inactive) | > 100 µM (inactive) | > 100 µM (inactive) | > 100 µM (inactive) | > 100 µM (inactive) | > 100 µM (inactive) | > 100 µM (inactive) | > 46.7 µM (inactive) | > 76.4 µM (inactive) | > 100 µM (inactive) | > 100 µM (inactive) | > 100 µM (inactive) |
| C[n+]1ccc(Nc2ccc(NC(=O)c3ccc(Nc4cc[n+](C)c5ccc([N+](=O)[O-])cc45)cc3[N+](=O)[O-])cc2)cc1 | 22.8 µM (inactive) | 23.7 µM (inactive) | 63.4 µM (inactive) | 27 µM (inactive) | 50.4 µM (inactive) | 19.5 µM (inactive) | 23.6 µM (inactive) | > 100 µM (inactive) | 64 µM (inactive) | 27.4 µM (inactive) | 29.7 µM (inactive) | > 100 µM (inactive) | > 39.7 µM (inactive) | 30.5 µM (inactive) | 26.9 µM (inactive) | 47.6 µM (inactive) | 57.8 µM (inactive) |
| O=C(Cc1nc2ccccc2s1)C(=O)Nc1ccc(Cl)cc1 | > 100 µM (inactive) | > 100 µM (inactive) | > 100 µM (inactive) | > 100 µM (inactive) | > 100 µM (inactive) | > 100 µM (inactive) | > 100 µM (inactive) | > 100 µM (inactive) | > 100 µM (inactive) | > 100 µM (inactive) | > 100 µM (inactive) | > 100 µM (inactive) | > 100 µM (inactive) | > 100 µM (inactive) | > 100 µM (inactive) | > 100 µM (inactive) | > 100 µM (inactive) |
| CCOC(=O)C12CCCC1(O)N(NC(=O)OC(C)(C)C)C(C)=C2C(=O)OC (centres undefined) | > 100 µM (inactive) | > 100 µM (inactive) | > 100 µM (inactive) | > 100 µM (inactive) | > 100 µM (inactive) | > 100 µM (inactive) | > 100 µM (inactive) | > 100 µM (inactive) | > 100 µM (inactive) | > 100 µM (inactive) | > 100 µM (inactive) | > 100 µM (inactive) | > 100 µM (inactive) | > 100 µM (inactive) | > 100 µM (inactive) | > 100 µM (inactive) | > 100 µM (inactive) |
| O=c1c2cccnc2ncn1CCCN1CCOCC1 | > 100 µM (inactive) | > 100 µM (inactive) | > 100 µM (inactive) | > 100 µM (inactive) | > 100 µM (inactive) | > 100 µM (inactive) |  | > 100 µM (inactive) |  | > 100 µM (inactive) | > 100 µM (inactive) | > 100 µM (inactive) | > 100 µM (inactive) | > 100 µM (inactive) | > 100 µM (inactive) | > 100 µM (inactive) | > 100 µM (inactive) |
| O=c1c2ccccc2[nH]c(=S)n1-c1ccc(Br)cc1 | 95.5 µM (inactive) | 42.9 µM (inactive) |  | > 100 µM (inactive) | > 100 µM (inactive) | > 100 µM (inactive) | > 100 µM (inactive) | 44.9 µM (inactive) | 51.6 µM (inactive) | 80.7 µM (inactive) | 51.9 µM (inactive) |  | 48.5 µM (inactive) | 68.4 µM (inactive) | 18.8 µM (inactive) | 92.5 µM (inactive) |  |
| COC(=O)[C@@H]1C(=O)O[C@@H](c2cc(OC)c(OC)cc2OC)[C@@H]1C(=O)OC.COC(=O)[C@H]1C(=O)O[C@@H](c2cc(OC)c(OC)cc2OC)[C@@H]1C(=O)OC | > 100 µM (inactive) | > 100 µM (inactive) | > 100 µM (inactive) | > 100 µM (inactive) | > 100 µM (inactive) | > 100 µM (inactive) | > 100 µM (inactive) | > 100 µM (inactive) | > 100 µM (inactive) | > 100 µM (inactive) | > 100 µM (inactive) | > 100 µM (inactive) | > 100 µM (inactive) | > 100 µM (inactive) | > 100 µM (inactive) | > 100 µM (inactive) | > 100 µM (inactive) |
| O=C1NC2OC(CO)C(O)C(O1)C2O (centres undefined) | > 100 µM (inactive) | > 100 µM (inactive) | > 100 µM (inactive) | > 100 µM (inactive) | > 100 µM (inactive) | > 100 µM (inactive) | > 100 µM (inactive) | > 100 µM (inactive) | > 100 µM (inactive) | > 100 µM (inactive) | > 100 µM (inactive) | > 100 µM (inactive) | > 100 µM (inactive) |  | > 100 µM (inactive) | > 100 µM (inactive) | > 100 µM (inactive) |
| COc1ccc(/C=C/c2cc(OC)c(OC(C)=O)c(OC)c2)cc1 | 22 µM (inactive) | 22.1 µM (inactive) | 34.6 µM (inactive) | > 10 µM (inactive) | 21.6 µM (inactive) | 26.3 µM (inactive) | 20.7 µM (inactive) | 26.5 µM (inactive) |  | 33.7 µM (inactive) | 20.7 µM (inactive) | 1.94 µM (inactive) |  | 30.8 µM (inactive) | 28.1 µM (inactive) | 20.3 µM (inactive) | 37.3 µM (inactive) |
| COc1ccc(NC(=O)CC2S/C(=N\c3ccccc3C)NC2=O)c([N+](=O)[O-])c1 (centres undefined) | > 100 µM (inactive) | > 100 µM (inactive) | > 100 µM (inactive) | > 100 µM (inactive) | > 100 µM (inactive) | > 100 µM (inactive) | > 100 µM (inactive) | > 100 µM (inactive) |  | > 100 µM (inactive) | > 100 µM (inactive) | > 100 µM (inactive) | > 100 µM (inactive) | > 100 µM (inactive) | > 100 µM (inactive) | > 100 µM (inactive) | > 100 µM (inactive) |
| Cc1cccc(C(C)(C)C)c1NC(=O)CCc1n[nH]c(=S)o1 | > 100 µM (inactive) | > 100 µM (inactive) | > 100 µM (inactive) | > 100 µM (inactive) | 0.3 µM (active) | > 100 µM (inactive) | > 100 µM (inactive) | > 100 µM (inactive) | > 100 µM (inactive) | > 100 µM (inactive) | > 100 µM (inactive) | > 100 µM (inactive) |  | 17.6 µM (inactive) | > 100 µM (inactive) | > 100 µM (inactive) | > 100 µM (inactive) |
| CC1C=C(OC(=O)c2ccccc2)C(=O)C(n2cc(F)c(=O)[nH]c2=O)O1 (centres undefined) | 84.3 µM (inactive) | 19.5 µM (inactive) | 51.3 µM (inactive) | 13.9 µM (inactive) | > 100 µM (inactive) | 51.2 µM (inactive) | > 100 µM (inactive) | 18.9 µM (inactive) | > 100 µM (inactive) | 69.8 µM (inactive) | 53.6 µM (inactive) | > 100 µM (inactive) |  | 38.5 µM (inactive) | > 100 µM (inactive) | 87.7 µM (inactive) | > 100 µM (inactive) |
| COc1cc(-c2n[nH]cc2CCCC(=O)Nc2ccccc2[N+](=O)[O-])ccc1O | > 100 µM (inactive) |  | 50.9 µM (inactive) | 74.5 µM (inactive) | > 100 µM (inactive) | 19.2 µM (inactive) | > 100 µM (inactive) | > 100 µM (inactive) | > 100 µM (inactive) | > 100 µM (inactive) | > 100 µM (inactive) | > 100 µM (inactive) | > 100 µM (inactive) | 45.3 µM (inactive) | 91.8 µM (inactive) | 79.8 µM (inactive) | > 100 µM (inactive) |
| CCC1C(C(=O)Nc2ccccc2C)=C(C)NC(C)=C1c1ccccc1C (centres undefined) | > 100 µM (inactive) | > 44.1 µM (inactive) | > 100 µM (inactive) | > 100 µM (inactive) | > 100 µM (inactive) | > 100 µM (inactive) | > 100 µM (inactive) | > 100 µM (inactive) | > 100 µM (inactive) | > 100 µM (inactive) | > 100 µM (inactive) | > 100 µM (inactive) | > 57.8 µM (inactive) | > 48.6 µM (inactive) | > 100 µM (inactive) | > 100 µM (inactive) | > 100 µM (inactive) |
| Cc1ccccc1C1CC(c2ccccc2)=NO1 (centres undefined) | > 100 µM (inactive) | > 100 µM (inactive) | > 100 µM (inactive) | > 100 µM (inactive) | > 100 µM (inactive) | > 100 µM (inactive) | > 100 µM (inactive) | > 100 µM (inactive) | > 100 µM (inactive) | > 100 µM (inactive) | > 100 µM (inactive) | > 100 µM (inactive) |  | > 100 µM (inactive) | > 100 µM (inactive) | > 100 µM (inactive) | > 100 µM (inactive) |
| CN(C)CCn1c2c3ccccc3ccc2c2oc(=O)c3ccccc3c21 | 5.53 µM (inactive) | 2.79 µM (inactive) | 6.12 µM (inactive) | 2.5 µM (inactive) |  | 9.86 µM (inactive) | 4.83 µM (inactive) | 4.86 µM (inactive) |  | 2.36 µM (inactive) | 6.3 µM (inactive) | 19.5 µM (inactive) | 4.23 µM (inactive) | 4.2 µM (inactive) | 5.58 µM (inactive) | 1.61 µM (inactive) | 0.895 µM (active) |
| CC(C)CC(CNC(Cc1ccc(Cl)cc1)C(N)=O)NC(=O)C(Cc1c[nH]cn1)NC(=O)CNC(=O)C(NC(=O)C(C)NC(=O)C(Cc1c[nH]c2ccccc12)NC(=O)C(CCC(=O)O)NC(=O)C(N)Cc1ccccc1)C(C)C (centres undefined) | > 133 µM (inactive) | > 133 µM (inactive) |  | > 133 µM (inactive) |  |  | > 133 µM (inactive) | > 133 µM (inactive) | > 133 µM (inactive) | > 133 µM (inactive) | > 133 µM (inactive) |  |  | > 133 µM (inactive) | < 0.0133 µM (active) | 8.17 µM (inactive) | > 133 µM (inactive) |
